Measured values taken from patent publication US11970511B2, “Tetrahydropyran-based thiodisaccharide mimics as Galectin-3 inhibitors” (BRISTOL-MYERS SQUIBB COMPANY, priority 2018, dated 2024).

Molecular target: His-tagged recombinant human Gal-3 (hGal-3) (Homo sapiens, UniProt P17931)
Assay: Gal-3 HTRF assay: His-tagged hGal-3 binding to B-ASF, Anti-His terbium antibody / Streptavidin d2 detection;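 note: compound preincubated 30 min with hGal-3, then 1 h with B-ASF, DMSO wells with B-ASF serving as positive control and those lacking B-ASF as negative control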
Details: 15 nM hGal-3, 15 nM B-ASF, three replicates, room temperature

Sequence of His-tagged recombinant human Gal-3 (hGal-3) (P17931 whole entry): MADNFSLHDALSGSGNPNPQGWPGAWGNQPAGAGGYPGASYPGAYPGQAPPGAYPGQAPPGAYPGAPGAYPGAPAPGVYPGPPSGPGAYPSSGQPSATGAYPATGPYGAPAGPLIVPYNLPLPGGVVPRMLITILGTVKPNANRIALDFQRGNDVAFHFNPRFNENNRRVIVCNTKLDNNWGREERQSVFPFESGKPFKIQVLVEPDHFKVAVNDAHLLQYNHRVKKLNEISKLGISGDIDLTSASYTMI

CC(=O)N1C[C@@H](S[C@@H]2O[C@H](CO)[C@H](O)[C@H](n3cc(-c4cc(F)c(F)c(F)c4)nn3)[C@H]2OCC(=O)O)[C@H](O)[C@@H](n2cc(-c3cccc(F)c3)nn2)C1 [Example B4, 2-(((2S,3R,4S,5R,6R)-2-(((3R,4R,5S)-1-acetyl-5-(4-(3-fluorophenyl)-1H-1,2,3-triazol-1-yl)-4-hydroxypiperidin-3-yl)thio)-5-hydroxy-6-(hydroxymethyl)-4-(4-(3,4,5-trifluorophenyl)-1H-1,2,3-triazol-1-yl)tetrahydro-2H-pyran-3-yl)oxy)acetic acid]
IC50: 0.032 µM
